Target: T1, HCV1b NS5B polymerase delta 21 (Hepatitis C virus genotype 1b, UniProt P26663)
T1 construct: purified HCV1b NS5B polymerase delta 21
Experiment: RNA-Dependent RNA HCV NS5B (Polymerase) Assay and IC50 Determination
Assay type: biochemical
In short: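 Purified NS5B Δ21 (0.6 μg) with polyA:U16 template, 10 μM UTP plus α-32P UTP in Tris-HCl pH 7.5, 5 mM MgCl2, 0.5% Triton X-100, 60 min at 23°C with varied compound concentrations. Radiolabelled RNA captured on filters, quantified by phosphorimaging; IC50 from triplicate assays.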

T1 sequence (P26663 2420-2989): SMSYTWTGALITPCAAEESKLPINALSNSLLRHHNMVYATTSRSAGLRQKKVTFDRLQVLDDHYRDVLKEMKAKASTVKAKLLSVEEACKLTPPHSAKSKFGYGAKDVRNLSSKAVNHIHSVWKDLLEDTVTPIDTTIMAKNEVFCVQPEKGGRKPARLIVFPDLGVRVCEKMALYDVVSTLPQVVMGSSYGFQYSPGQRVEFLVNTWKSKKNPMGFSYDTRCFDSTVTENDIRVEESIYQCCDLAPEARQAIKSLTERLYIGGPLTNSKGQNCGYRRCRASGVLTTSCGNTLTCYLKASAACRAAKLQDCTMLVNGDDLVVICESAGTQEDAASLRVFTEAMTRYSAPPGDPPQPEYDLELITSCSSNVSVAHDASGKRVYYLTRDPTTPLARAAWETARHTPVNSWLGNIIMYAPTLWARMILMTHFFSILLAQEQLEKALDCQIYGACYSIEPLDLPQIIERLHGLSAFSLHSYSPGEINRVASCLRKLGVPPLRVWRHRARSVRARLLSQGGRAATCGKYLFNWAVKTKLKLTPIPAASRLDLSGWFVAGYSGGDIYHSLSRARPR

Structure (SMILES)	IC50
CC1CCC(C2=C(c3cc(-c4ccccc4)sc3C(=O)O)CCN(C(=O)c3cncn3C)C2)CC1 (stereo not drawn) [Example 156, 3-[5-(4-Methyl-cyclohexyl)-1-(3-methyl-3H-imidazole-4-carbonyl)-1,2,3,6-tetrahydro-pyridin-4-yl]-5-phenyl-thiophene-2-carboxylic acid]	> 10 µM
CC1CCC(C2=C(c3cc(-c4ccccc4)sc3C(=O)O)CCN(Cc3cncnc3)C2)CC1 (stereo not drawn) [Example 157, 3-[5-(4-Methyl-cyclohexyl)-1-pyrimidin-5-ylmethyl-1,2,3,6-tetrahydro-pyridin-4-yl]-5-phenyl-thiophene-2-carboxylic acid]	> 10 µM
CC1CCC(C2=C(c3cc(-c4ccc(/C=C/c5cscn5)cc4)sc3C(=O)O)CCN(C)C2)CC1 (stereo not drawn) [Example 158, 3-[1-Methyl-5-(4-methyl-cyclohexyl)-1,2,3,6-tetrahydro-pyridin-4-yl]-5-[4-(2-thiazol-4-yl-vinyl)-phenyl]-thiophene-2-carboxylic acid]	> 10 µM
CC1CCC(C2=C(c3cc(-c4ccc(NC(=O)c5cscn5)cc4)sc3C(=O)O)CCNC2)CC1 (stereo not drawn) [Example 159, 3-[5-(4-Methyl-cyclohexyl)-1,2,3,6-tetrahydro-pyridin-4-yl]-5-{4-[(thiazole-4-carbonyl)-amino]-phenyl}-thiophene-2-carboxylic acid]	< 3 µM
CC1CCC(C2=C(c3cc(-c4cc(F)c(NC(=O)c5cscn5)cc4F)sc3C(=O)O)CCN(C)C2)CC1 (stereo not drawn) [Example 160, 5-{2,5-Difluoro-4-[(thiazole-4-carbonyl)-amino]-phenyl}-3-[1-methyl-5-(4-methyl-cyclohexyl)-1,2,3,6-tetrahydro-pyridin-4-yl]-thiophene-2-carboxylic acid]	< 3 µM
Cc1cc(C)n2nc(-c3ccc(-c4cc(C5=C(C6CCC(C)CC6)CN(C)CC5)c(C(=O)O)s4)cc3)cc2n1 (stereo not drawn) [Example 161, 5-[4-(5,7-Dimethyl-pyrazolo[1,5-a]pyrimidin-2-yl)-phenyl]-3-[1-methyl-5-(4-methyl-cyclohexyl)-1,2,3,6-tetrahydro-pyridin-4-yl]-thiophene-2-carboxylic acid]	3 to 10 µM
Cc1ccnc2cc(-c3ccc(-c4cc(C5=C(C6CCC(C)CC6)CN(C)CC5)c(C(=O)O)s4)cc3)nn12 (stereo not drawn) [Example 162, 3-[1-Methyl-5-(4-methyl-cyclohexyl)-1,2,3,6-tetrahydro-pyridin-4-yl]-5-[4-(7-methyl-pyrazolo[1,5-a]pyrimidin-2-yl)-phenyl]-thiophene-2-carboxylic acid]	< 3 µM
Cc1cnc2cc(-c3ccc(-c4cc(C5=C(C6CCC(C)CC6)CN(C)CC5)c(C(=O)O)s4)cc3)nn2c1 (stereo not drawn) [Example 163, 3-[1-Methyl-5-(4-methyl-cyclohexyl)-1,2,3,6-tetrahydro-pyridin-4-yl]-5-[4-(6-methyl-pyrazolo[1,5-a]pyrimidin-2-yl)-phenyl]-thiophene-2-carboxylic acid]	3 to 10 µM
CC1CCC(C2=C(c3cc(-c4ccc(-c5cn6ncccc6n5)cc4)sc3C(=O)O)CCN(C)C2)CC1 (stereo not drawn) [Example 164, 5-(4-Imidazo[1,2-b]pyridazin-2-yl-phenyl)-3-[1-methyl-5-(4-methyl-cyclohexyl)-1,2,3,6-tetrahydro-pyridin-4-yl]-thiophene-2-carboxylic acid]	3 to 10 µM
CC1CCC(C2=C(c3cc(-c4ccc(-n5cc6ncccc6n5)cc4)sc3C(=O)O)CCN(C)C2)CC1 (stereo not drawn) [Example 165, 3-[1-Methyl-5-(4-methyl-cyclohexyl)-1,2,3,6-tetrahydro-pyridin-4-yl]-5-(4-pyrazolo[4,3-b]pyridin-2-yl-phenyl)-thiophene-2-carboxylic acid]	< 3 µM
CC1CCC(C2=C(c3cc(-c4cc(F)c(NC(=O)c5cscn5)c(F)c4)sc3C(=O)O)CCN(C)C2)CC1 (stereo not drawn) [Example 166, 5-{3,5-Difluoro-4-[(thiazole-4-carbonyl)-amino]-phenyl}-3-[1-methyl-5-(4-methyl-cyclohexyl)-1,2,3,6-tetrahydro-pyridin-4-yl]-thiophene-2-carboxylic acid]	< 3 µM
CC1CCC(C2=C(c3cc(-c4ccc(NC(=O)c5cscn5)cc4)sc3C(=O)O)CN(C)CC2)CC1 (stereo not drawn) [Example 167, 3-[1-Methyl-4-(4-methyl-cyclohexyl)-1,2,5,6-tetrahydro-pyridin-3-yl]-5-{4-[(thiazole-4-carbonyl)-amino]-phenyl}-thiophene-2-carboxylic acid]	< 3 µM
CC1CCC(C2=C(c3cc(C#CC(C)(C)C)sc3C(=O)O)CCN(CCO)C2)CC1 (stereo not drawn) [Example 168, 5-(3,3-Dimethyl-but-1-ynyl)-3-[1-(2-hydroxy-ethyl)-5-(4-methyl-cyclohexyl)-1,2,3,6-tetrahydro-pyridin-4-yl]-thiophene-2-carboxylic acid]	< 3 µM
CC1CCC(C2=C(c3cc(-c4ccc(-c5cc6ncccn6n5)cc4)sc3C(=O)O)CN(C)CC2)CC1 (stereo not drawn) [Example 169, 3-[1-Methyl-4-(4-methyl-cyclohexyl)-1,2,5,6-tetrahydro-pyridin-3-yl]-5-(4-pyrazolo[1,5-a]pyrimidin-2-yl-phenyl)-thiophene-2-carboxylic acid]	< 3 µM
CC1CCC(C2=C(c3cc(C#CC(C)(C)C)sc3C(=O)O)CN(C(=O)CO)CC2)CC1 (stereo not drawn) [Example 170, 5-(3,3-Dimethyl-but-1-ynyl)-3-[1-(2-hydroxy-acetyl)-4-(4-methyl-cyclohexyl)-1,2,5,6-tetrahydro-pyridin-3-yl]-thiophene-2-carboxylic acid]	3 to 10 µM
CC1CCC(C2=C(c3cc(I)sc3C(=O)O)CNCC2)CC1 (stereo not drawn) [Example 171, 5-Iodo-3-[4-(4-methyl-cyclohexyl)-1,2,5,6-tetrahydro-pyridin-3-yl]-thiophene-2-carboxylic acid]	> 10 µM
CC1CCC(C2=C(c3cc(C#CC4(C)CC4)sc3C(=O)O)CCN(C)C2)CC1 (stereo not drawn) [Example 172, 5-(1-Methyl-cyclopropylethynyl)-3-[1-methyl-5-(4-methyl-cyclohexyl)-1,2,3,6-tetrahydro-pyridin-4-yl]-thiophene-2-carboxylic acid]	< 3 µM
CC1CCC(C2=C(c3cc(C#CC4(c5ccccc5)CC4)sc3C(=O)O)CCN(C)C2)CC1 (stereo not drawn) [Example 173, 3-[1-Methyl-5-(4-methyl-cyclohexyl)-1,2,3,6-tetrahydro-pyridin-4-yl]-5-(1-phenyl-cyclopropylethynyl)-thiophene-2-carboxylic acid]	> 10 µM
CC1CCC(C2=C(c3cc(C#CC4(Cc5ccccc5)CC4)sc3C(=O)O)CCN(C)C2)CC1 (stereo not drawn) [Example 174, 5-(1-Benzyl-cyclopropylethynyl)-3-[1-methyl-5-(4-methyl-cyclohexyl)-1,2,3,6-tetrahydro-pyridin-4-yl]-thiophene-2-carboxylic acid]	> 10 µM
CC1CCC(C2=C(c3cc(C#CC4CC4)sc3C(=O)O)CN(C)CC2)CC1 (stereo not drawn) [Example 175, 5-Cyclopropylethynyl-3-[1-methyl-4-(4-methyl-cyclohexyl)-1,2,5,6-tetrahydro-pyridin-3-yl]-thiophene-2-carboxylic acid]	< 3 µM
CC1CCC(C2=C(c3cc(C#CC4CCCC4)sc3C(=O)O)CN(C)CC2)CC1 (stereo not drawn) [Example 176, 5-Cyclopentylethynyl-3-[1-methyl-4-(4-methyl-cyclohexyl)-1,2,5,6-tetrahydro-pyridin-3-yl]-thiophene-2-carboxylic acid]	< 3 µM

— US8771665B2 (Cocrystal Discovery, Inc., priority 2010, dated 2014)
